Assay results published in PMC9372747, “Genome-wide analysis of UGT gene family identified key gene for the biosynthesis of bioactive flavonol glycosides in Epimedium pubescens Maxim” (Synthetic and Systems Biotechnology, 2022).

Tested on: T1, EpGT60
T1 construct: not anchored to any chromosome
Test: UPLC of rhamnosylated product, GraphPad Prism fit
Assay type: biochemical, Epimedium pubescens
Details: 4 mM UDP-rhamnose, 1 mM DTT, 50 mM Tris-HCl pH 7.0, 30 °C, 1 h; substrate 100-500 μM

Km: 289 µM
Structure (SMILES): CC(C)=CCc1c(O)cc(O)c2c(=O)c(O)c(-c3ccc(O)cc3)oc12 [8-prenylkaempferol]
